From patent publication US10221171B2, “Oxathiazole thiazolium Hsp 70 inhibitors” (THE REGENTS OF THE UNIVERSITY OF CALIFORNIA, priority 2015, dated 2019) come the findings set out here.

Bounds are passed on as bounds.

Holding throughout (type): cell-based
Assay [1] deals with MDA-MB-231. In words: MTT cell viability assay, MDA-MB-231. As to conditions: Homo sapiens. Here is the method:
(§1) Cells were then treated with compound at various concentrations in 0.2 mL media. After the 72-hour incubation period, cells were washed in PBS (3×100 μL), and 10 μL MTT reagent was added with 100 μL fresh media. Cells were then incubated for 4 hr in a humidified chamber at 37° C. with 5% CO2. Insoluble formazan crystals were solubilized by addition of 0.1 mL detergent solution (4 hr at room temp., dark). Resulting colored solutions were then quantified at an absorbance of 570 nm.

Assay [2] relates to MEF (C57BL/6). In words: MTT cell viability assay, MEF (C57BL/6). Conditions: Mus musculus; MTT, 72-hour incubation; read-out: IC50/μM MEF (C57BL/6). Here is the method:
as §1

For assay [3], the system named is MCF-7. Put plainly: MTT cell viability assay, MCF-7. As to conditions: Homo sapiens, MCF7; MTT, 72-hour incubation; read-out: IC50/μM MCF-7. The protocol:
as §1

As to `CCn1c(=O)/c(=C2\Sc3cc(Br)ccc3N2C)s/c1=C\c1scc[n+]1Cc1ccccc1C` [JG-290], the IC50 was determined as 0.21 ± 0.02 µM in assay [1] (MDA-MB-231, 72-hour incubation); 1.7 ± 0.1 µM in assay [2]; 0.16 ± 0.01 µM in assay [3].
On to `CCn1c(=O)/c(=C2\Sc3cc(Cl)ccc3N2C)s/c1=C\c1scc[n+]1CCc1ccccc1` [JG-269], for which the IC50 in assay [1] (MDA-MB-231, 72-hour incubation) was determined as 0.26 ± 0.04 µM; in assay [2], 2.2 ± 0.1 µM; in assay [3] it was 0.18 ± 0.01 µM.
Taken in the same sequence, the figures for `CN1/C(=c2\s/c(=C\c3scc[n+]3Cc3ccccc3)n(C)c2=O)Sc2cc(F)cc(F)c21` [JG-282] were 0.26 ± 0.03 µM, 2.5 ± 0.1 µM and 0.29 ± 0.04 µM.
Taken in the same sequence, the figures for `CCc1ccc2c(c1)S/C(=c1/s/c(=C\c3scc[n+]3Cc3ccccc3C(F)(F)F)n(CC)c1=O)N2C` [JG-298] were 0.11 ± 0.01 µM, 0.43 ± 0.02 µM and 0.052 ± 0.004 µM.
Taken in the same sequence, the figures for `CCn1c(=O)/c(=C2\Sc3ccc(C)cc3N2C)s/c1=C\c1scc[n+]1Cc1ccccc1Cl` [JG-365] were 0.16 ± 0.02 µM, 0.42 ± 0.02 µM and 0.11 ± 0.01 µM.
Regarding `CCn1c(=O)/c(=C2\Sc3cc(Cl)ccc3N2C)s/c1=C\c1scc[n+]1Cc1ccnc(Cl)c1` [JG-257], the IC50 in assay [1] (MDA-MB-231, 72 h, 72-hour incubation) was 7.2 ± 0.8 µM; in assay [2], 1.1 ± 0.1 µM; in assay [3], greater than 5 µM.
For the compound `CN1/C(=c2\s/c(=C\c3scc[n+]3Cc3ccccc3)n(C)c2=O)Sc2cc(Cl)ccc21` [JG-281], the IC50 in assay [1] (MDA-MB-231, 72-hour incubation) was 0.16 ± 0.02 µM; in assay [2], 5.7 ± 0.3 µM; in assay [3] it was 0.6 ± 0.06 µM.
Take `CCc1ccc2c(c1)S/C(=c1/s/c(=C\c3scc[n+]3Cc3ccsc3C(=O)OC)n(CC)c1=O)N2C` [JG-299]: the IC50 in assay [1] (MDA-MB-231, 72-hour incubation) was determined as 0.071 ± 0.009 µM; in assay [2], 0.92 ± 0.04 µM; in assay [3], 0.083 ± 0.007 µM.
For the compound `C=CCn1c(=O)/c(=C2\Sc3cc(C)ccc3N2C)s/c1=C\c1scc[n+]1Cc1ccccc1` [JG-341], the IC50 in assay [1] (MDA-MB-231, 72-hour incubation) was found to be 0.11 ± 0.01 µM; in assay [2] it was 1.6 ± 0.1 µM; in assay [3], 0.15 ± 0.01 µM.
Consider `CCn1c(=O)/c(=C2\Sc3ccc(OC)cc3N2C)s/c1=C\c1scc[n+]1Cc1ccccc1OC` [JG-404], for which the IC50 came out at 0.3 ± 0.03 µM in assay [1] (MDA-MB-231, 72-hour incubation); 1.3 ± 0.1 µM in assay [2]; 0.79 ± 0.1 µM in assay [3].
For `CCn1c(=O)/c(=C2\Sc3cc(C)ccc3N2C)s/c1=C\c1scc[n+]1CCc1ccccc1Cl` [JG-380], the IC50 stood at 0.25 ± 0.03 µM in assay [1] (MDA-MB-231, 72-hour incubation); 0.94 ± 0.03 µM in assay [2]; 0.2 ± 0.02 µM in assay [3].
As to `CCn1c(=O)/c(=C2\Sc3cc(F)ccc3N2C)s/c1=C\c1scc[n+]1Cc1occc1C(=O)OC` [JG-266], the IC50 in assay [1] (MDA-MB-231, 72-hour incubation) is 0.3 ± 0.02 µM; in assay [2], 2.7 ± 0.2 µM; in assay [3], 0.87 ± 0.11 µM.
Take `CCn1c(=O)/c(=C2\Sc3cc(OC)ccc3N2C)s/c1=C\c1scc[n+]1Cc1cc(C)sc1C` [JG-353]: the IC50 is 0.15 ± 0.01 µM in assay [1] (MDA-MB-231, 72-hour incubation); 1.1 ± 0.1 µM in assay [2]; 0.15 ± 0.01 µM in assay [3].
`CCn1c(=O)/c(=C2\Sc3cc(C)ccc3N2C)s/c1=C\c1scc[n+]1CCc1ccc(Cl)cc1` [JG-386]: the IC50 in assay [1] (MDA-MB-231, 72-hour incubation) was found to be 0.28 ± 0.03 µM; in assay [2], 1.7 ± 0.1 µM; in assay [3], 0.53 ± 0.05 µM.
Consider `CCc1ccc2c(c1)S/C(=c1/s/c(=C\c3scc[n+]3Cc3c(C)cccc3C)n(CC)c1=O)N2C` [JG-343], for which the IC50 in assay [1] (MDA-MB-231, 72-hour incubation) worked out at 0.25 ± 0.01 µM; in assay [2] it was 0.64 ± 0.01 µM; in assay [3], 0.22 ± 0.02 µM.
Taken in the same sequence, the figures for `CCn1c(=O)/c(=C2\Sc3cc(C)ccc3N2C)s/c1=C\c1scc[n+]1Cc1ccsc1C(=O)OC` [JG-248] were 0.11 ± 0.01 µM, 1.2 ± 0.2 µM and 0.14 ± 0.01 µM.
As for `CCn1c(=O)/c(=C2\Sc3cc(OC)ccc3N2C)s/c1=C\c1scc[n+]1CCc1cccc(Cl)c1` [JG-394], the IC50 in assay [1] (MDA-MB-231, 72-hour incubation) is 0.24 ± 0.01 µM; in assay [2] it was 2.3 ± 0.1 µM; in assay [3] it was 0.56 ± 0.06 µM.
Turning to `CCn1c(=O)/c(=C2\Sc3cc(C)ccc3N2C)s/c1=C\c1scc[n+]1CCc1ccccc1C(F)(F)F` [JG-378], the IC50 in assay [1] (MDA-MB-231, 72-hour incubation) stood at 0.14 ± 0.02 µM; in assay [2] it was 0.87 ± 0.03 µM; in assay [3] it was 0.13 ± 0.01 µM.
As to `CCn1c(=O)/c(=C2\Sc3ccc(C)cc3N2C)s/c1=C\c1scc[n+]1Cc1occc1C(=O)OC` [JG-370], the IC50 amounted to 0.18 ± 0.02 µM in assay [1] (MDA-MB-231, 72-hour incubation); 1.2 ± 0.1 µM in assay [2]; 0.22 ± 0.01 µM in assay [3].
Consider `CCn1c(=O)/c(=C2\Sc3cc(F)ccc3N2C)s/c1=C\c1scc[n+]1Cc1ccccc1C(=O)OC` [JG-332], for which the IC50 in assay [1] (MDA-MB-231, 72-hour incubation) was determined as 0.26 ± 0.03 µM; in assay [2], 2 ± 0.1 µM; in assay [3], 0.22 ± 0.03 µM.
In the case of `CCn1c(=O)/c(=C2\Sc3cc(F)ccc3N2C)s/c1=C\c1scc[n+]1[C@H](C)c1ccccc1` [JG-340], the IC50 in assay [1] (MDA-MB-231, 72-hour incubation) came to 0.38 ± 0.03 µM; in assay [2] it was 1.5 ± 0.05 µM; in assay [3], 0.24 ± 0.03 µM.
